Source: patent publication US9340577B2, “HLA binding motifs and peptides and their uses” (priority 1992, dated 2016)
No end group written: not given here.

Tests used:
Experiment in all cases: biochemical
Assay type in all cases: binding
[1] = target: HLA-A3.2 (A*0301) (Homo sapiens, UniProt P04439)
[2] = target: HLA-A11 (A*1101) (Homo sapiens, UniProt P04439, A114D/D185E/E176A/F33Y/L180Q/S129P/T187R)
[3] = target: A31 (A*3101) (Homo sapiens, UniProt P04439, A270S/D185E/E176V/E277Q/F33T/G231S/G80R/H175R/I121M/I218V/I322F/K168Q/L300P/L318F/M331R/P217A/Q94H/R138Q/T323A/T345S/T97I/V358M)
[4] = target: A*3301 (Homo sapiens, UniProt P04439, A270S/D185E/E176V/E277Q/E87N/F33T/G231S/H175R/I121M/I218V/I322F/K168Q/K210R/L300P/L318F/M331R/P217A/Q86R/Q94H/R138Q/T323A/T345S/T97I/V358M/Y195H)
[5] = target: A*6801 (Homo sapiens, UniProt P04439, A269V/D185E/E176V/E277Q/E87N/F33Y/G231S/I121M/I166T/I218V/L180W/L300P/L318F/N151K/P208A/P217A/Q86R/R169H/T345S)

Sequence	IC50 [1]	IC50 [2]	IC50 [3]	IC50 [4]	IC50 [5]
KLCLRFLSK [Peptide 1571.20]	0.018 µM	0.279 µM	0.271 µM	> 20 µM	> 20 µM
KLFGYSWYK [Peptide 76.0146]	0.011 µM	0.0073 µM	0.0073 µM	3.72 µM	0.016 µM
KLFLKGVPK [Peptide 1587.41]	0.016 µM	0.017 µM	0.0015 µM	9.68 µM	> 20 µM
KLFLQGTPK [Peptide 88.0381]	0.015 µM	0.012 µM	0.051 µM	> 20 µM	0.703 µM
KLGIVTITY [Peptide 88.0428]	0.065 µM	3.43 µM	> 20 µM	> 20 µM	> 20 µM
KLVEDRWNK [Peptide 9017.0107]	0.265 µM	0.102 µM	0.061 µM	> 20 µM	18 µM
KQEAVRHFPR [Peptide 9017.0239]	9.26 µM	0.394 µM	0.0099 µM	0.575 µM	6.74 µM
KSCFAMSLIK [Peptide 88.0190]	0.057 µM	0.017 µM	0.311 µM	> 20 µM	12.2 µM
KSFFSRTWCK [Peptide 88.0170]	0.0079 µM	0.012 µM	0.0054 µM	0.022 µM	0.219 µM
KSFLKGTPK [Peptide 88.0344]	0.016 µM	0.023 µM	0.022 µM	16.1 µM	1.91 µM
KSFLKGTPKK [Peptide 88.0149]	0.048 µM	0.089 µM	0.572 µM	> 20 µM	> 20 µM
KTASVGTPK [Peptide 1589.27]	0.011 µM	0.013 µM	0.044 µM	> 20 µM	0.0085 µM
KTDEGGDWK [Peptide 88.0380]	3.63 µM	0.407 µM	> 20 µM	13.1 µM	9.89 µM
KTLLQPYCLY [Peptide 88.0153]	0.18 µM	0.405 µM	4.28 µM	19.6 µM	> 20 µM
KTTPVVHLK [Peptide 1589.37]	0.028 µM	0.022 µM	0.028 µM	> 20 µM	0.033 µM
KTTVLFKFK [Peptide 88.0369]	0.031 µM	0.02 µM	0.036 µM	1.4 µM	0.874 µM
KVSEFRWYR [Peptide 78.0281]	0.043 µM	0.015 µM	0.01 µM	0.032 µM	0.023 µM
KVSPIVHLK [Peptide 1589.42]	0.021 µM	0.03 µM	0.006 µM	> 20 µM	0.025 µM
LFYSKVRKYK [Peptide 88.0098]	0.68 µM	2.58 µM	0.018 µM	0.03 µM	1.98 µM
LLFYSKVRK [Peptide 78.0298]	0.0039 µM	0.013 µM	0.395 µM	0.799 µM	0.023 µM
LLLIRFKCSK [Peptide 88.0191]	0.284 µM	3.52 µM	0.749 µM	17.4 µM	0.879 µM
LLQAVRIIK [Peptide 9017.0068]	0.107 µM	0.326 µM	0.328 µM	3.02 µM	15.9 µM
LLRAVRIIK [Peptide 9017.0069]	0.069 µM	2.03 µM	2.64 µM	> 20 µM	> 20 µM
LLYGAANTGK [Peptide 1587.12]	0.0033 µM	0.016 µM	6.72 µM	> 20 µM	0.076 µM
